pKd: −log10 of the molar value. The source made the active and inactive calls. The rule behind the calls is not given here.

By Kd is commonly meant the concentration at which binding is half-saturated. The term pKd denotes −log10 of the Kd, conventionally taken in molar units.

This test deals with Peptidyl-prolyl cis-trans isomerase FKBP1A (Homo sapiens) (UniProt P62942). Nature of the test: small-molecule binding to FKBP12 – biophysical, NMR detection (AID 608). The note with it: purified FKBP12.
Peptidyl-prolyl cis-trans isomerase FKBP1A (Homo sapiens), sequence (P62942 whole entry, looked up): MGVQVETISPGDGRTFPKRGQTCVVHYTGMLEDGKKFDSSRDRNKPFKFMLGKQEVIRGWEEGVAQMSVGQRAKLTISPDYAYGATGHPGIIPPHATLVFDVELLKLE
`CC(C)Nc1ncnc2c1nnn2C`: the Kd was > 4 mM (inactive). For the molecule `CCOC(=O)CN1C(=O)c2ccccc2C1=O`, the Kd is > 4 mM (inactive). Take `CCn1cnc2cc([N+](=O)[O-])ccc2c1=O`: the Kd is > 4 mM (inactive).

For `CSc1ccc(C(=S)N2CCN(C)CC2)cc1`, the Kd was > 4 mM (inactive).

In the case of `C[C@@H]1CC[C@@]2(OC1)OC1C(O)C3C4CC[C@H]5C[C@H](O[C@@H]6O[C@H](CO)[C@H](O[C@@H]7O[C@H](CO)[C@@H](O)[C@H](O[C@@H]8OC[C@@H](O)[C@H](O)[C@H]8O)[C@H]7O[C@@H]7O[C@H](CO)[C@H](O)[C@H](O[C@@H]8O[C@H](CO)[C@@H](O)[C@H](O)[C@H]8O)[C@H]7O)[C@H](O)[C@H]6O)[C@H](O)C[C@]5(C)C4CC[C@]3(C)C1[C@@H]2C` (stereo partly specified), the Kd was > 4 mM (inactive). With `O=C(O)CSc1nc2ccccc2c(=O)[nH]1`, the Kd was > 4 mM (inactive). Same read-out and setting: next, `O=C(Cn1c(-c2cscn2)nc2ccccc21)Nc1ccc(Cl)cc1`: > 4 mM (inactive); `c1cncc(-c2nnc(-c3cccnc3)nn2)c1`: > 4 mM (inactive). As for `CCc1noc(C)c1C(=O)N1CCCC1`, the Kd was > 4 mM (inactive).

With `CC1=NN2C(=N)/C(=C\c3cccs3)C(=O)N=C2S1`, the Kd was > 4 mM (inactive). The same measure, in the same setting: next, `CC(C)=CCC/C(C)=C/CC/C(C)=C/CC/C(C)=C/CC/C(C)=C/CC/C(C)=C/CC/C(C)=C/CC/C(C)=C/CC/C(C)=C/CO`: > 4 mM (inactive). On to `O=C(O)C1CC(=O)N(Cc2ccc(F)cc2)C1` (stereo unspecified), for which the Kd is > 4 mM (inactive). `O=S1(=O)CCC(NC(=S)N2CCOCC2)C1` (stereo unspecified): the pKd was 4.32. In the case of `CCc1noc(C)c1C(=O)N1CCOCC1`, the Kd is > 4 mM (inactive). As to `COc1ccc(-c2nnsc2N)cc1`, the Kd was > 4 mM (inactive).

With `Cc1ccc(O)c(NC(=O)c2ccco2)c1`, the Kd is > 4 mM (inactive). The same measure, in the same setting: under `COC(=O)C[C@@H]1C2(C)C(=O)[C@@H](CC3=C4CC(O)O[C@@H](c5ccoc5)[C@]4(C)CCC32)[C@H](O)C1(C)C` (stereo partly specified) stands > 4 mM (inactive); under `CC(=O)Nc1cc(N2C(=O)C=CC2=O)ccc1Cl`, > 4 mM (inactive). Still for that read-out and setting: under `C=CCNC(=O)c1ccc(Cl)cc1Cl` stands > 4 mM (inactive); under `O=C(O)c1ccc(CSc2ncn[nH]2)cc1`, > 4 mM (inactive); under `NC1=NC(=O)/C(=C/c2ccccc2[N+](=O)[O-])S1`, > 4 mM (inactive). The same measure, in the same setting: under `Nc1cc(=O)[nH]c(=S)n1CCc1ccccc1` stands > 4 mM (inactive); under `CC(C)(O)[C@@H]1Cc2cc3ccc(=O)oc3cc2O1`, > 4 mM (inactive); under `Cc1occc1C(=O)N1CCC2(CC1)OCCO2`, > 4 mM (inactive). For `OC1CC2CCC1C2` (stereo unspecified), the Kd was > 4 mM (inactive). On the same count and under the same terms, under `O=C(O)c1cncc(-c2ccccc2)c1` stands > 4 mM (inactive). Same read-out and setting: next, `CC1=NN(c2ccc(C)cc2)C(=O)C1`: > 4 mM (inactive). Still for that read-out and setting: next, `C=CCc1ccc(OC(=O)c2ccccc2)c(OC)c1`: > 4 mM (inactive); `CCOc1ccc2nc(NS(C)(=O)=O)sc2c1`: > 4 mM (inactive); `Cn1cccc1C(=S)N1CCOCC1`: > 4 mM (inactive). As for `Cc1nc2ccccc2c(=O)n1NC(=O)C1CCCCC1`, the Kd was > 4 mM (inactive). Still for that read-out and setting: under `COC(=O)[C@@H]1OC(=O)C2OC23[C@@]1(C)CCC1[C@]2(C)C(C[C@@H](O)[C@]13C)C(C)(C)[C@H](OC(C)=O)C[C@@H]2OC(C)=O` (stereo partly specified) stands > 4 mM (inactive); under `O=C(O)c1cccc(N2C(=O)C3CC=CCC3C2=O)c1` (stereo unspecified), > 4 mM (inactive); under `O=c1c(O)cccc2cc(O)c(O)c(O)c12`, > 4 mM (inactive). As for `Cc1cc(NC(=O)c2ccc3c(c2)OCO3)no1`, the Kd was > 4 mM (inactive). For the molecule `Cn1c(SCC(N)=O)nnc1-c1cccnc1`, the Kd is > 4 mM (inactive). Still for that read-out and setting: next, `CC1CN(C2=NCCN2)CC(C)O1` (stereo unspecified): > 4 mM (inactive); `CCOC(=O)N1CCN(c2ncnc3c2cnn3C)CC1`: > 4 mM (inactive). Turning to `O=C(O)c1sccc1-n1cccc1`, the Kd was > 4 mM (inactive). For the molecule `Cn1nnc2cc(C(=O)O)ccc21`, the Kd was > 4 mM (inactive).

As to `Cn1cc(Cl)c(C(=O)Nc2ccc(F)cc2F)n1`, the Kd is > 4 mM (inactive).

For the molecule `C=C1[C@H]2CC[C@@]3(C)[C@H](c4ccoc4)OC(=O)C[C@]13O[C@H]1C[C@H](O)C(C)(C)[C@H](CC(=O)OC)[C@]12C`, the Kd is > 4 mM (inactive).

Take `CCC(=O)n1nc(-c2ccco2)nc1N`: the Kd is > 4 mM (inactive).

For the molecule `COC(=O)[C@@]1(C)CCC[C@]2(C)c3ccc(O)c(C(C)C)c3CCC12` (stereo partly specified), the Kd was > 4 mM (inactive).

As to `CCOC(=O)c1cc2ccccc2oc1=O`, the Kd was > 4 mM (inactive). For `NCc1cccc(-n2cccc2)c1`, the Kd was > 4 mM (inactive). Still for that read-out and setting: under `CN(C)c1ccc(N2C(=O)CCC2=O)cc1` stands > 4 mM (inactive). As for `COC(=O)CC1C(C)(C)C(OC(C)=O)[C@@H]2[C@@H](OC(C)=O)[C@]34O[C@@]2(O)[C@]1(C)C3CC[C@]1(C)C4=CC(=O)O[C@H]1c1ccoc1` (stereo partly specified), the Kd is > 4 mM (inactive). The same measure, in the same setting: next, `NC(=O)c1cccc2c1OCCO2`: > 4 mM (inactive). With `O=C(O)C1CN2CCC1CC2` (stereo unspecified), the Kd is > 4 mM (inactive). As to `COC(=O)c1cccc(C(F)(F)F)c1`, the Kd is > 4 mM (inactive). `Cc1ccc(NS(=O)(=O)N2CCOCC2)c(C)c1`: the Kd was > 4 mM (inactive). The same measure, in the same setting: next, `O=c1[nH]cnc2c1nnn2Cc1ccccc1`: > 4 mM (inactive); `C[C@H]1CCCC(=O)CCC/C=C/c2cc(O)cc(O)c2C(=O)O1`: > 4 mM (inactive); `Cc1ccc(CN2C3=NC(=O)CN3c3ccccc32)cc1`: > 4 mM (inactive).

On to `Cc1cc(C)nc(NC(N)=NCc2ccco2)n1`, for which the Kd was > 4 mM (inactive). The same measure, in the same setting: next, `NS(=O)(=O)c1ccc(N=C2NC(=O)CS2)cc1`: > 4 mM (inactive); `COc1cc(NC(=O)c2ccccc2)c(C)cc1N`: > 4 mM (inactive). The same measure, in the same setting: under `Cn1nnc2c(N3CCC(C(N)=O)CC3)ncnc21` stands > 4 mM (inactive); under `C=C(C)[C@@H]1[C@H]2OC(=O)[C@@H]1[C@]1(O)C[C@H]3O[C@]34C(=O)O[C@H]2[C@]14C`, > 4 mM (inactive); under `COc1ccc(Cc2nnc3c4cnn(C)c4ncn23)cc1`, > 4 mM (inactive).

In the case of `O=C(CC1NC(=O)NC1=O)Nc1ccccc1` (stereo unspecified), the Kd was > 4 mM (inactive).

On to `CN1CCC2(CC1)CC1CC3C=CC1(CN2)O3` (stereo unspecified), for which the Kd was > 4 mM (inactive).

For the molecule `O=C1NC(=S)N/C1=C\c1cccnc1`, the Kd is > 4 mM (inactive). Still for that read-out and setting: next, `COc1ccccc1-c1n[nH]c(=O)o1`: > 4 mM (inactive); `Cc1cc(NC(=O)CS(=O)(=O)c2ccccc2)no1`: > 4 mM (inactive); `O=C1C2C3CCC(O3)C2C(=O)N1c1cccc(F)c1` (stereo unspecified): > 4 mM (inactive). `CNC(=O)CC1Sc2ccccc2NC1=O` (stereo unspecified): the Kd is > 4 mM (inactive). On the same count and under the same terms, under `NS(=O)(=O)c1ccc(N=Cc2cccs2)cc1` stands > 4 mM (inactive); under `Cc1cc(C)cc(OC(=O)N2CCOCC2)c1`, > 4 mM (inactive); under `Cc1noc(C)c1C(=O)Nc1cccnc1`, > 4 mM (inactive).

For `CC(=O)NC(C)(C)C1CC=C(C)/C(=N\O)C1` (stereo unspecified), the Kd is > 4 mM (inactive). Still for that read-out and setting: under `CC(=O)N1CC2(C)CN(C(C)=O)CC(C)(C1)C2` stands > 4 mM (inactive).

For the molecule `Cc1ccc(C)c(C(=O)n2cnnc2N)c1`, the Kd was > 4 mM (inactive). Still for that read-out and setting: under `CC(=O)Nc1sccc1C(=O)NC(N)=O` stands > 4 mM (inactive); under `O=C(Nc1ccccn1)C(=O)N1CCCC1`, > 4 mM (inactive). Same read-out and setting: under `Nc1ccc(S(=O)(=O)N2CCOCC2)cc1` stands > 4 mM (inactive). `O=C(O)CCCC(=O)Nc1nccs1`: the Kd was > 4 mM (inactive). With `NC(=O)C1CCN(C(=O)c2ccccc2)CC1`, the Kd is > 4 mM (inactive). On the same count and under the same terms, under `COc1c(C)c2c(c(O)c1C/C=C(\C)CCC(=O)O)C(=O)OC2` stands > 4 mM (inactive).

With `NC(=O)c1ccsc1NC(=O)c1ccccc1[N+](=O)[O-]`, the Kd was > 4 mM (inactive).

Consider `C(=N\c1ncn[nH]1)/c1cccs1`, for which the Kd is > 4 mM (inactive). The same measure, in the same setting: next, `CO[C@H]1[C@@H](O)[C@@H](C)O[C@H](O[C@H]2CCC3(C)C4CCC5(C)[C@@H](C6=CC(=O)OC6)CC[C@]5(O)[C@@H]4CC[C@]3(O)C2)[C@@H]1O` (stereo partly specified): > 4 mM (inactive).

For `O=C(NC(=S)NC1CCSC1=O)c1ccco1` (stereo unspecified), the Kd was > 4 mM (inactive). Regarding `CC(=O)c1cccc(N=C2NC(=O)CS2)c1`, the Kd is > 4 mM (inactive).

In the case of `CCC(C)C(=O)O[C@H]1[C@H](O)C2C(CN3CC(C)CCC3[C@@]2(C)O)C2C[C@]34O[C@]5(O)C(OC(=O)C(C)(O)CC)CC[C@@]3(C)C5C(OC(C)=O)[C@@H](OC(C)=O)C4[C@@]21O` (stereo partly specified), the Kd is > 4 mM (inactive). On the same count and under the same terms, next, `Cc1ccc(-c2cc(C(=O)N3CCCC3)no2)cc1`: > 4 mM (inactive).

For `CS(=O)(=O)N1CCN(c2ncccn2)CC1`, the Kd is > 4 mM (inactive).

In the case of `CC(=O)c1ccc(Cc2cnc(N)s2)cc1`, the Kd is > 4 mM (inactive). For the molecule `Cc1ccc2c(c1)CCCN2C(=O)c1c(C)noc1C`, the Kd is > 4 mM (inactive). Still for that read-out and setting: next, `COc1cc(O)c2c(=O)c(O)c(-c3ccc(O)c(O)c3)oc2c1`: > 4 mM (inactive); `COc1ccc(C(O)c2nccn2C)cc1` (stereo unspecified): > 4 mM (inactive); `Cc1cc(C)n(/N=C\c2cccs2)c(=O)c1C(N)=O`: > 4 mM (inactive). The same measure, in the same setting: under `CCOC(=O)c1c(C)nc2ccccn12` stands > 4 mM (inactive); under `Nc1ccncc1`, > 4 mM (inactive). As for `CCc1c(C(=O)Nc2ccncc2)csc1C`, the Kd was > 4 mM (inactive).
